Experimental data from US8895695B2, “Template-fixed beta-hairpin peptidomimetics with CXCR4 antagonizing activity” (priority 2003, dated 2014).
Where two headings read alike, the source gives them in different places. Bridge positions count the residues as written; N and C are the ends. Square brackets hold non-standard residues; d marks the D form. Peptide text beside a SMILES is read from it. * marks the point of attachment. Decanoyl(3,6,9-trioxa) = COCCOCCOCC(=O)*; 2Nal = N[C@@H](Cc1ccc2ccccc2c1)C(=O)O; Cit = NC(=O)NCCC[C@H](N)C(=O)O; Dab = NCC[C@H](N)C(=O)O; Dap = NC[C@H](N)C(=O)O

Key:
CXCR4 = CXCR4 (Homo sapiens, UniProt P61073); assay: Ca2+-assay method 2 (Flexstation, SDF-1 induced calcium mobilization); assay type: cell-based; design: expressed in transfected cells; host or cells: mouse pre-B cell line 300-19; conditions: method 2 (Ex. 54-160), mouse pre-B cell line 300-19 with human CXCR4, 10 nM SDF-1
Chain of CXCR4 (P61073 whole entry): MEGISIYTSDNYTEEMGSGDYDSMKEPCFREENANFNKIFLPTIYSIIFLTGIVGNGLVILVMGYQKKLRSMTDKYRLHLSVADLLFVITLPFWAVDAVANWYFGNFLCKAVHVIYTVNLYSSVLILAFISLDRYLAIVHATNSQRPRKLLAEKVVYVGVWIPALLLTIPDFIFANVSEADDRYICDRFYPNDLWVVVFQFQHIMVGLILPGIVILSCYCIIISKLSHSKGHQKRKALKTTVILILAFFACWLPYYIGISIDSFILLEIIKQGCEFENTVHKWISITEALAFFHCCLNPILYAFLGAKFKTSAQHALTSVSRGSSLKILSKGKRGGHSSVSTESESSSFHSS
Experimental: 2.2. Ca^2+-Assay: CXCR4-Antagonizing Activity of the Peptides.
The cells were batch loaded with the Calcium 3 Assay kit (Molecular Devices) in assay buffer (Hanks Balanced salt solution, HBSS, 20 mM HEPES, pH 7.4, 0.1% BSA) for 1 h at room temperature and then 200,000 labeled cells were dispensed into black 96 well assays plates (Costar No. 3603). A 20-fold concentrated solution of peptide in assay buffer was added to the cells and the whole plate was centrifuged to settle the cells to the bottom of the wells. Calcium mobilization induced by 10 nM stromal-derived factor-1 (SDF-1) was measured in the Flexstation 384 (excitation, 485 nM; emission, 525 nM) for 90 seconds. A maximal change in fluorescence response above baseline was used to calculate antagonist activity. The data for dose response curves (antagonist concentration versus % maximum response) were fitted to a four parameter logistic equation using SoftmaxPro 4.6 (Molecular Devices), from which IC50% values were calculated.

in vitro = conditions: human
Experimental: Each peptide concentration was assayed in triplicate. […] Wells were then washed once with PBS and subsequently 100 μl MTT reagent (0.5 mg/mL in medium RPMI1640 and, respectively, DMEM) was added to the wells. This was incubated at 37° C. for 2 hours and subsequently the medium was aspirated and 100 μl isopropanol was added to each well. […] For each concentration averages were calculated from triplicates. The percentage of growth was calculated as follows: (OD595peptide-OD595Tz-OD595Empty well)/(OD595Tz-OD595Empty well)×100% and was plotted for each peptide concentration.
‘CCR5’ cells were cultured in DMEM medium with 4500 mg/ml glucose, 10% fetal bovine serum (FBS), supplemented with 50 U/ml Penicillin and 50 μg/ml Streptomycin (Pen/Strept.). Hut/4-3 cells were maintained in RPMI medium, 10% FBS, supplemented with Pen/Strept. and 10 mM HEPES. HELA cells and CCRF-CEM cells were maintained in RPMI1640 plus 5% FBS, Pen/Strept and 2 mM L-Glutamine. Cos-7 cells were grown in DMEM medium with 4500 mg/ml glucose supplemented with 10% FCS, Pen/Strept. and 2 mM L-Glutamine. All cell lines were grown at 37° C. at 5% CO2.

[1] = system: human red blood cells (hRBC); assay: Hemolysis; assay type: cell-based
Experimental: The peptides were tested for their hemolytic activity against human red blood cells (hRBC). Fresh hRBC were washed three times with phosphate buffered saline (PBS) by centrifugation for 10 min at 2000×g. Peptides at a concentration of 100 μM were incubated with 20% v/v hRBC for 1 hour at 37° C. The final erythrocyte concentration was approximately 0.9×10^9 cells per ml. A value of 0% resp. 100% cell lysis was determined by incubation of the hRBC in the presence of PBS alone and respectively 0.1% Triton X-100 in H2O. The samples were centrifuged and the supernatant was 20-fold diluted in PBS buffer and the optical density (OD) of the sample at […] was measured. The 100% lyses value (OD540H2O) gave an OD540 of approximately 1.3-1.8. Percent hemolysis was calculated as follows: (OD540peptide/OD540H2O)×100%.

[2] = read-out: IC50 (nM) Ca^2+ assay
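For GI50 in this document: MTT reduction read as absorbance at 595 nm, blank-corrected and expressed as percent growth relative to the time-zero cell reading, triplicate wells per concentration.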

Row | SMILES | IC50 (CXCR4; [2]) | GI50 at 48 h (in vitro) | Hemolysis at 100 μM [1] | IC50 (CXCR4; IC50 (nM) Ca^2+ assay)
1 | C[C@@H](O)[C@@H]1NC(=O)[C@H]2CCCN2C(=O)CNC(=O)[C@H](CCCNC(=N)N)NC(=O)[C@@H]2CSSC[C@H](NC(=O)[C@H](Cc3ccc4ccccc4c3)NC(=O)[C@H](CCCNC(=N)N)NC1=O)C(=O)N[C@@H](Cc1ccc(O)cc1)C(=O)N[C@@H](CCC(N)=O)C(=O)N[C@@H](CCCCN)C(=O)N1CCC[C@@H]1C(=O)N1CCC[C@H]1C(=O)N[C@@H](Cc1ccc(O)cc1)C(=O)N[C@@H](CCCNC(=N)N)C(=O)N[C@@H](CCCNC(N)=O)C(=O)N2 [Ex. 56] (cyclo(YR[Cit]CRG[dP]TR[2Nal]CYQK[dP]P); disulfide 4-11) | 0.74 nM | 60000 nM | – | –
2 | N=C(N)NCCC[C@@H]1NC(=O)[C@H](CCCNC(=N)N)NC(=O)[C@H]2CCCN2C(=O)CNC(=O)[C@H](CCN)NC(=O)[C@@H]2CSSC[C@H](NC(=O)[C@H](Cc3c[nH]c4ccccc34)NC1=O)C(=O)N[C@@H](Cc1ccc(O)cc1)C(=O)N[C@@H](CCC(N)=O)C(=O)N[C@@H](CCCCN)C(=O)N1CCC[C@@H]1C(=O)N1CCC[C@H]1C(=O)N[C@@H](Cc1ccc(O)cc1)C(=O)N[C@@H](CCCNC(=N)N)C(=O)N[C@@H](CCCNC(N)=O)C(=O)N2 [Ex. 111] (cyclo(YR[Cit]C[Dab]G[dP]RRWCYQK[dP]P); disulfide 4-11) | – | > 100000 nM | 0% | –
3 | N=C(N)NCCC[C@@H]1NC(=O)[C@@H]2CSSC[C@H](NC(=O)[C@H](Cc3ccc4ccccc4c3)NC(=O)[C@H](CCCNC(=N)N)NC(=O)[C@H](CCCNC(=N)N)NC(=O)[C@H]3CCCN3C(=O)CNC1=O)C(=O)N[C@@H](Cc1ccc(O)cc1)C(=O)N[C@@H](CCC(N)=O)C(=O)N[C@@H](CCCCN)C(=O)N1CCC[C@@H]1C(=O)N1CCC[C@H]1C(=O)N[C@@H](Cc1ccc(O)cc1)C(=O)N[C@@H](CCCNC(=N)N)C(=O)N[C@@H](CCCNC(N)=O)C(=O)N2 [Ex. 115] (cyclo(RR[2Nal]CYQK[dP]PYR[Cit]CRG[dP]); disulfide 4-13) | 2.7 nM | – | 0.1% | –
4 | N=C(N)NCCC[C@@H]1NC(=O)[C@@H]2CSSC[C@H](NC(=O)[C@H](Cc3c[nH]c4ccccc34)NC(=O)[C@H](CCCNC(=N)N)NC(=O)[C@H](CCCNC(=N)N)NC(=O)[C@H]3CCCN3C(=O)CNC1=O)C(=O)N[C@@H](Cc1ccc(O)cc1)C(=O)N[C@@H](CCCNC(N)=O)C(=O)N[C@@H](CCCCN)C(=O)N1CCC[C@@H]1C(=O)N1CCC[C@H]1C(=O)N[C@@H](Cc1ccc(O)cc1)C(=O)N[C@@H](CCCNC(=N)N)C(=O)N[C@@H](CCCNC(N)=O)C(=O)N2 [Ex. 128] (cyclo(YR[Cit]CRG[dP]RRWCY[Cit]K[dP]P); disulfide 4-11) | 4.5 nM | – | – | –
5 | N=C(N)NCCC[C@@H]1NC(=O)[C@@H]2CSSC[C@H](NC(=O)[C@H](Cc3ccc4ccccc4c3)NC(=O)[C@H](CCCNC(=N)N)NC(=O)[C@H](CCCNC(=N)N)NC(=O)[C@H]3CCCN3C(=O)CNC1=O)C(=O)N[C@@H](Cc1ccc(O)cc1)C(=O)N[C@@H](CCC(N)=O)C(=O)N[C@@H](CCCCN)C(=O)N1CCC[C@@H]1C(=O)N1CCC[C@H]1C(=O)N[C@@H](Cc1ccc(O)cc1)C(=O)N[C@@H](CCCNC(=N)N)C(=O)N[C@@H](CCCNC(N)=O)C(=O)N2 [Ex. 132] (cyclo(RR[2Nal]CYQK[dP]PYR[Cit]CRG[dP]); disulfide 4-13) | – | 76000 nM | 0% | –
6 | N=C(N)NCCC[C@@H]1NC(=O)[C@@H]2CSSC[C@H](NC(=O)[C@H](Cc3ccc4ccccc4c3)NC(=O)[C@H](CCCNC(=N)N)NC(=O)[C@H](CN)NC(=O)[C@H]3CCCN3C(=O)CNC1=O)C(=O)N[C@@H](Cc1ccc(O)cc1)C(=O)N[C@@H](CCCNC(N)=O)C(=O)N[C@@H](CCCCN)C(=O)N1CCC[C@@H]1C(=O)N1CCC[C@H]1C(=O)N[C@@H](Cc1ccc(O)cc1)C(=O)N[C@@H](CCCNC(=N)N)C(=O)N[C@@H](CCCNC(N)=O)C(=O)N2 [Ex. 135] (cyclo(YR[Cit]CRG[dP][Dap]R[2Nal]CY[Cit]K[dP]P); disulfide 4-11) | – | 30000 nM | 0.1% | –
7 | COCCOCCOCC(=O)NCC[C@@H]1NC(=O)[C@H]2CCCN2C(=O)CNC(=O)[C@H](CCCNC(=N)N)NC(=O)[C@@H]2CSSC[C@H](NC(=O)[C@H](Cc3c[nH]c4ccccc34)NC(=O)[C@H](CCCNC(=N)N)NC1=O)C(=O)N[C@@H](Cc1ccc(O)cc1)C(=O)N[C@@H](CCCNC(N)=O)C(=O)N[C@@H](CCCCN)C(=O)N1CCC[C@@H]1C(=O)N1CCC[C@H]1C(=O)N[C@@H](Cc1ccc(O)cc1)C(=O)N[C@@H](CCCNC(=N)N)C(=O)N[C@@H](CCCNC(N)=O)C(=O)N2 [Ex. 142] (cyclo(YR[Cit]CRG[dP][Dab](Decanoyl(3,6,9-trioxa))RWCY[Cit]K[dP]P); disulfide 4-11) | – | – | – | 96.9 nM
8 | C[C@@H]1NC(=O)[C@H](CCCNC(=N)N)NC(=O)[C@@H]2CSSC[C@H](NC(=O)[C@H](Cc3c[nH]c4ccccc34)NC(=O)[C@H](CCCNC(=N)N)NC(=O)[C@H](CCCNC(=N)N)NC(=O)[C@H]3CCCN3C1=O)C(=O)N[C@@H](Cc1ccc(O)cc1)C(=O)N[C@@H](CCCNC(N)=O)C(=O)N[C@@H](CCCCN)C(=O)N1CCC[C@@H]1C(=O)N1CCC[C@H]1C(=O)N[C@@H](Cc1ccc(O)cc1)C(=O)N[C@@H](CCCNC(=N)N)C(=O)N[C@@H](CCCNC(N)=O)C(=O)N2 [Ex. 143] (cyclo(YR[Cit]CRA[dP]RRWCY[Cit]K[dP]P); disulfide 4-11) | 0.9 nM | 46000 nM | – | –
9 | CC(C)C[C@@H]1NC(=O)[C@@H]2CCCN2C(=O)[C@H]2CCCN2C(=O)[C@H](CCCCN)NC(=O)[C@H](CCC(N)=O)NC(=O)[C@H](Cc2ccc(O)cc2)NC(=O)[C@@H]2CSSC[C@H](NC(=O)[C@H](CCCNC(N)=O)NC(=O)[C@H](CCCNC(=N)N)NC1=O)C(=O)N[C@@H](CCCNC(=N)N)C(=O)NCC(=O)N1CCC[C@@H]1C(=O)N[C@@H](CCCNC(=N)N)C(=O)N[C@@H](CCCNC(=N)N)C(=O)N[C@@H](Cc1ccc3ccccc3c1)C(=O)N2 [Ex. 144] (cyclo(LR[Cit]CRG[dP]RR[2Nal]CYQK[dP]P); disulfide 4-11) | 0.18 nM | – | – | –
10 | C[C@@H](O)[C@@H]1NC(=O)[C@H](CCCNC(=N)N)NC(=O)[C@H](Cc2ccc(O)cc2)NC(=O)[C@@H]2CCCN2C(=O)[C@H]2CCCN2C(=O)[C@H](CCCCN)NC(=O)[C@H](CCCNC(N)=O)NC(=O)[C@H](Cc2ccc(O)cc2)NC(=O)[C@@H]2CSSC[C@H](NC1=O)C(=O)N[C@@H](CCCNC(=N)N)C(=O)NCC(=O)N1CCC[C@@H]1C(=O)N[C@@H](CCCNC(=N)N)C(=O)N[C@@H](CCCNC(=N)N)C(=O)N[C@@H](Cc1ccc(O)cc1)C(=O)N2 [Ex. 146] (cyclo(YRTCRG[dP]RRYCY[Cit]K[dP]P); disulfide 4-11) | 0.24 nM | – | – | –
11 | N=C(N)NCCC[C@@H]1NC(=O)[C@@H]2CSSC[C@H](NC(=O)[C@H](Cc3ccc4ccccc4c3)NC(=O)[C@H](CCCNC(=N)N)NC(=O)[C@H](CCCNC(=N)N)NC(=O)[C@H]3CCCN3C(=O)CNC1=O)C(=O)N[C@@H](Cc1ccc(O)cc1)C(=O)N[C@@H](CCCNC(N)=O)C(=O)N[C@@H](CCCCN)C(=O)N[C@H]1CSSC[C@H](NC(=O)[C@H](Cc3ccc(O)cc3)NC(=O)CNC(=O)[C@H](CCCCN)NC(=O)[C@H](Cc3ccc(O)cc3)NC1=O)C(=O)N[C@@H](Cc1ccc(O)cc1)C(=O)N[C@@H](CCCNC(=N)N)C(=O)N[C@@H](CCCNC(N)=O)C(=O)N2 [Ex. 154] (cyclo([2Nal]CY[Cit]KCYKGYCYR[Cit]CRG[dP]RR); disulfide 2-15, 6-11) | – | – | – | 9.3 nM
12 | N=C(N)NCCC[C@@H]1NC(=O)[C@@H]2CSSC[C@H](NC(=O)[C@H](Cc3c[nH]c4ccccc34)NC(=O)[C@H](CCCNC(=N)N)NC(=O)[C@H](CCCNC(=N)N)NC(=O)[C@H]3CCCN3C(=O)CNC1=O)C(=O)N[C@@H](Cc1ccc(O)cc1)C(=O)N[C@@H](CCC(N)=O)C(=O)N[C@@H](CCCCN)C(=O)N[C@H]1CSSC[C@H](NC(=O)[C@H](Cc3ccc(O)cc3)NC(=O)CNC(=O)[C@H](CCCCN)NC(=O)[C@H](Cc3ccc(O)cc3)NC1=O)C(=O)N[C@@H](Cc1ccc(O)cc1)C(=O)N[C@@H](CCCNC(=N)N)C(=O)N[C@@H](CCCNC(N)=O)C(=O)N2 [Ex. 155] (cyclo(CRG[dP]RRWCYQKCYKGYCYR[Cit]); disulfide 1-8, 12-17) | – | – | – | 0.46 nM
13 | N=C(N)NCCC[C@@H]1NC(=O)[C@@H]2CSSC[C@H](NC(=O)[C@H](Cc3c[nH]c4ccccc34)NC(=O)[C@H](CCCNC(=N)N)NC(=O)[C@H](CCCNC(=N)N)NC(=O)[C@H]3CCCN3C(=O)CNC1=O)C(=O)N[C@@H](Cc1ccc(O)cc1)C(=O)N[C@@H](CCCNC(=N)N)C(=O)N[C@@H](CCCCN)C(=O)N[C@H]1CSSC[C@H](NC(=O)[C@H](Cc3ccc(O)cc3)NC(=O)CNC(=O)[C@H](CCCCN)NC(=O)[C@H](Cc3ccc(O)cc3)NC1=O)C(=O)N[C@@H](Cc1ccc(O)cc1)C(=O)N[C@@H](CCCNC(=N)N)C(=O)N[C@@H](CCCCN)C(=O)N2 [Ex. 160] (cyclo(CRG[dP]RRWCYRKCYKGYCYRK); disulfide 1-8, 12-17) | – | – | – | 0.38 nM
